Experimental findings from PubChem BioAssay AID1117361 (Southern Research Institute, 2015) are described below.

This experiment deals with Protein Tat (Human immunodeficiency virus type 1 group M subtype B (isolate HXB2)) (UniProt P04608). The experiment can be described thus: HIV-1 Tat–TAR interaction blockers – biochemical, fluorescence polarization, FAM-labeled TAR RNA, counter-screen for Vif-APOBEC3G degradation inhibitor project, dose response (AID 1117361). The conditions noted are these: Tat-TAR RNA binding. (Polarisation of emitted light reports the rotation of a fluorescent probe.)
Sequence of Protein Tat (Human immunodeficiency virus type 1 group M subtype B (isolate HXB2)) (P04608 whole entry, looked up): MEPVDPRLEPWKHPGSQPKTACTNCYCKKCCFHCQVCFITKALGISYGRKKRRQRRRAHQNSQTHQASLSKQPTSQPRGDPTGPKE
The IC50 is the midpoint of a concentration-inhibition curve. `O=C(NC(=S)Nc1cccc(S(=O)(=O)NC2=NCCC2)c1)c1cc(-c2ccco2)nc2ccccc12`: the IC50 is 8.04 µM.
Regarding `O=[N+]([O-])c1c(NCCO)cc(Sc2nc3ccccc3s2)c2nonc12`, the IC50 is 90.1 µM.
The value for `COc1ccc(OC)c(S(=O)(=O)Nc2ccc(O)c3ccccc23)c1` was 83 µM; that for `O=C1CCCC(O)=C1N=Nc1ccc(C(=O)O)cc1` was 6.47 µM; that for `O=C(NCCO)Nc1ccc2nc(-c3ccco3)c(-c3ccco3)nc2c1` was 1.76 µM.
The value for `O=C(O)c1cccc2cccc(-c3c4ccc(=O)c(O)c-4oc4c(O)c(O)ccc34)c12` was 3.38 µM.
The value for `CNc1ccc(Br)cc(C(=O)/C=C/c2cc(OC)ccc2OC)c1=O` was 9.75 µM; that for `N#CC(C#N)=Cc1cccn1-c1ccc(C(=O)O)cc1` was 33.3 µM.
Consider `FC(F)(F)c1cc(-c2ccco2)nc(NCc2ccco2)n1`, for which the IC50 is 28.5 µM.
Next, `O=C1CC(c2ccco2)CC(O)=C1C=Nc1cc(Cl)cc(Cl)c1` (stereo unspecified): 9.58 µM; `CNc1ccc(Br)cc(C(=O)/C=C/c2ccc(OC)cc2OC)c1=O`: 52 µM.
The value for `c1cn2cc(CSC3CCCCC3)nc2s1` was 63.8 µM.
Next, `N=C1/C(=C\c2ccc(SCc3ccco3)o2)C(=O)N=C2SC=NN12`: 2.49 µM; `CC1(c2ccc3noc(-c4ccccc4)c3c2)OCCO1`: 2.87 µM.
As for `NC(=O)c1cc(N)ccc1N1CCCC1`, the IC50 was 2.17 µM.
The value for `CCOc1cc(N2CCOCC2)c(OCC)cc1NS(=O)(=O)c1ccc(Cl)s1` was 14.9 µM; that for `CC1=C(C#N)C(=O)N(C2CCS(=O)(=O)C2)C(=O)/C1=C\c1ccc(C)o1` (stereo unspecified) was 1.35 µM; that for `Cc1ccc(C)n1-c1sccc1C(=O)O` was 0.909 µM.
The value for `Cc1cc(C(=O)CSc2nc3ccccc3c(=O)[nH]2)c(C)n1C` was 49.2 µM; that for `O=c1[nH]c(=S)[nH]c2c1C(c1ccc(Br)cc1)c1c([nH]c(=S)[nH]c1=O)O2` was 2.72 µM; that for `Cc1ccc(N2C(=O)/C(=C/c3ccc(CN(CCC#N)S(C)(=O)=O)o3)C(=O)NC2=S)cc1` was 90 µM.
The value for `O=C(O)/C=C/C(=O)Nc1cccnc1` was 2.02 µM; that for `CCN1CCc2c(C#N)c(NCc3ccccc3)nc(N(CC)CC)c2C1` was 59.4 µM; that for `Oc1ccc(NCc2cccc(OCc3ccc(F)cc3)c2)cc1` was 68.7 µM.
For `Cc1ccc(NC(=O)COc2ccc(/C=N/NC(=O)CSCc3ccccc3)cc2)cc1`, the IC50 was 16.3 µM.
For the molecule `O=S(=O)(O)c1cc(O)c2cc(Nc3ccccc3)ccc2c1`, the IC50 was 20.5 µM.
The value for `C=CCn1c(C)c(C(C)=O)c(N2CCN(c3ccccc3)CC2)nc1=S` was 7.51 µM; that for `CCOc1ccccc1C(O)C1=CC(=O)c2ccccc2C1=O` (stereo unspecified) was 77.7 µM; that for `Cn1nc(-c2ccc(Cl)cc2)c2cc(C(=O)N3CCN(c4ccccc4)CC3)sc21` was 12.6 µM.
The value for `COC(C(=O)C(O)C(C)O)C1Cc2cc3cc(OC4CC(OC5CC(O)C(O)C(C)O5)C(O)C(C)O4)c(C)c(O)c3c(O)c2C(=O)C1OC1CC(OC2CC(OC3CC(O)C(OC)C(C)O3)C(O)C(C)O2)C(O)C(C)O1` (stereo unspecified) was 27.9 µM.
Next, `CC1=C(C#N)C(=O)N(C2CCS(=O)(=O)C2)C(=O)/C1=C\c1ccco1` (stereo unspecified): 2.88 µM; `O=c1nc2s/c(=C\c3ccco3)c(=O)n2nc1Cc1ccccc1`: 5.21 µM; `Cc1ccc(-n2nc(C)c(C3C(C#N)=C(N)Oc4c3c(=O)oc3ccccc43)c2Cl)cc1` (stereo unspecified): 25.2 µM.
As for `O=C(NC1CCCC1)c1ccc2nc(-c3ccco3)c(-c3ccco3)nc2c1`, the IC50 is 2.08 µM.
`O=C(Nc1ccccc1)c1ccc2nc(-c3ccco3)c(-c3ccco3)nc2c1`: the IC50 was 7.63 µM.
Next, `O=C1CC(SC(=S)C2CCCC2=O)C(=O)N1` (stereo unspecified): 3.21 µM.
The value for `COC(=O)C1=C(N)OC2=C(C(=O)CCC2)C1c1cccs1` (stereo unspecified) was 52.2 µM.
Next, `O=[n+]1c2c(n([O-])c3cc(F)c(F)cc31)CCCC2`: 11.1 µM.
`Cn1c(O)c(/C=N/NC(=O)c2ccncc2)c(=O)[nH]c1=S`: the IC50 is 51.8 µM.
Next, `O=[N+]([O-])c1cc(-c2ccc(/C=N/c3nc4ccccn4c3-c3ccco3)o2)ccc1Cl`: 28.7 µM; `O=C1CC(c2ccco2)CC(O)=C1C=Nc1cc(Cl)ccc1O` (stereo unspecified): 20.5 µM; `COC(=O)C1C(O)C(C)C(O)C(C)(O)/C=C\C=C(/C)C(=O)Nc2c(C)c(OC(C)=O)c3c(c2O)C(=O)C(C)=C2OCOC(=C23)/C(C)=C/C(C)(O)C(O)C(C)C1O` (stereo unspecified): 54.6 µM.
The value for `Cc1cc(C)c([N+](=O)[O-])cc1-c1ccc(/C=N/c2c(-c3ccco3)nc3ccccn23)o1` was 57.5 µM; that for `O=C1/C(=C/C=C/c2ccco2)SC(=S)N1c1ccc(O)cc1` was 19.1 µM; that for `CCCSC1=N/C(=C\c2ccc([N+](=O)[O-])o2)C(=O)S1` was 7.37 µM.
The value for `C=CCOC(=O)C1=C(C)NC(SCC(=O)Nc2ccccc2)=C(C#N)C1c1ccco1` (stereo unspecified) was 57.5 µM.
With `CNc1ccc(Br)cc(C(=O)/C=C/c2cccc(OC)c2OC)c1=O`, the IC50 is 8 µM.
The value for `CN(CCC#N)C(=O)COC(=O)c1c2c(nc3ccccc13)/C(=C\c1ccco1)CC2` was 79.8 µM; that for `CCOC(=O)N1CCN(C(=O)c2ccc3c(SCC(=O)O)c4c(nc3c2)CCC4)CC1` was 7.65 µM; that for `O=C1NC(c2ccc(Br)cc2)=N/C1=C/c1ccco1` was 6.78 µM.
The value for `CCNC(=O)COC(=O)c1cc(-c2ccco2)nc2ccccc12` was 8.09 µM.
Next, `O=C(/C(=N/N=C/c1ccc(O)c(O)c1O)c1ccccc1)c1ccccc1`: 35.2 µM.
Regarding `CCCCN1C(=O)/C(=C/C=C/c2ccco2)C(=O)NC1=S`, the IC50 was 21.7 µM.
`O=C(NN1C(=O)/C(=C/C=C/c2ccco2)SC1=S)c1ccccc1O`: the IC50 was 4.46 µM.
The value for `NS(=O)(=O)c1ccc(N=Nc2c[nH]c(=O)c(O)c2)cc1` was 9.47 µM; that for `COc1cc(OC)c2c(c1O)OC(c1ccccc1)CC2=O` (stereo unspecified) was 65.4 µM.
Next, `CCOC(=O)N1CC=C2C(C#N)=C(N)C(C#N)(C#N)[C@H](c3cccs3)[C@H]2C1`: 15.3 µM; `O=C(CCS(=O)(=O)c1ccc(Br)cc1)NC1CCCC1`: 50.8 µM.
Next, `COc1ccccc1C1C=C(c2ccc(C)cc2)Nc2nnnn21` (stereo unspecified): 84.4 µM.
Consider `CCCCC1=CC2=CC(=O)C(C)(OC(=O)c3cnc4ccccc4n3)C(=O)C2=CO1` (stereo unspecified), for which the IC50 is 7.3 µM.
Next, `Cc1cc(C(=O)O)ccc1-n1c(C)ccc1C`: 5.78 µM; `O=C(O)C1Nc2c(O)cccc2C2C=CCC12` (stereo unspecified): 0.703 µM; `COc1ccccc1-n1c(-c2cc(-c3ccco3)[nH]n2)n[nH]c1=S`: 5.36 µM.
The value for `COc1cc(/C=C/C=C2/CC/C(=C/C=C/c3ccc(O)c(OC)c3)C2=O)ccc1O` was 44.8 µM; that for `CCN(CC(=O)Nc1c(F)cccc1F)C(=O)CSC(=S)N1CCCC1` was 75.6 µM.
The value for `Cc1[nH]c2c(Cl)cccc2c(=O)c1CN1CCCC1` was 78.3 µM; that for `N#CC1=C(N)OC2=C(CCC/C2=C/c2ccoc2)C1c1ccoc1` (stereo unspecified) was 7.35 µM; that for `O=c1cc(-c2ccccc2Cl)c2c([nH]1)CCC2` was 18.8 µM.
As for `Cc1cc(C(=O)NCCCN2CCCC2=O)no1`, the IC50 is 24 µM.
For `Cc1cc2c(N)cccc2nn1`, the IC50 is 2.08 µM.
The value for `CCC1S/C(=C(\C#N)C(=O)NCc2ccco2)N(c2ccc(F)cc2)C1=O` (stereo unspecified) was 14.9 µM.
The value for `O=C(O)c1[nH]c2ccc(Cl)cc2c1CC(=O)N1CCN(C(=O)c2ccco2)CC1` was 69.5 µM; that for `O=C(O)c1ccc2c(c1)C1C=CCC1C(c1ccncc1)N2` (stereo unspecified) was 6.37 µM; that for `CC1(C)CCCN(C(=O)c2coc(=O)c(Br)c2)C1` was 7.77 µM.
Next, `CN(C)S(=O)(=O)c1cccc(NC(=S)N/N=C/c2ccc(O)c(O)c2O)c1`: 23.2 µM.
`CN1CCN(C2=C(Cl)C(=O)C(c3cnc(N4CCCCC4)s3)=C(Cl)C2=O)CC1`: the IC50 was 6.71 µM.
Next, `CCN(CC)c1ccc2oc(=O)c(C)nc2c1`: 20.2 µM; `CC(C(=O)O)N1C(=O)/C(=C/C=C/c2ccco2)SC1=S` (stereo unspecified): 1.54 µM.
Regarding `CCOC(=O)CSc1nncc2ccc(OC)c(OC)c12`, the IC50 is 56.6 µM.
For `CCOC(=O)C1=C(c2ccccc2)N=c2s/c(=C\c3ccco3)c(=O)n2C1c1cccs1` (stereo unspecified), the IC50 is 32.8 µM.
The value for `CCN(CC)c1ccc(NC(=O)CCS(=O)(=O)c2ccc(Br)cc2)c(C)c1` was 46.5 µM; that for `CCn1cc(CNC(=O)c2ccc(Cl)c([N+](=O)[O-])c2)c(C)n1` was 43 µM.
Next, `COC(=O)c1ccc(=O)c2nc3/c(=C/O)c(O)cc(=O)c3[nH]c12`: 20.3 µM; `CN1C(=O)/C(=C/C=C/c2ccco2)C(=O)NC1=S`: 11.2 µM.
As to `COc1ccc(NC(=O)/C(C#N)=C\c2ccc(Br)o2)cc1`, the IC50 was 60.8 µM.
Consider `O=S(=O)(O)c1cc(O)c2ccc(Nc3ccccc3)cc2c1`, for which the IC50 was 12.5 µM.
The value for `Cc1cc(-c2csc(NC(=O)c3ccc(C#N)cc3)n2)c(C)n1Cc1ccco1` was 16.7 µM; that for `O=C1NC(=S)N(c2ccccc2)C(=O)/C1=C/c1ccco1` was 16.2 µM.
Next, `CCOc1cc(N2CCOCC2)c(OCC)cc1NC(C)C(=O)N1CCN(CC)CC1` (stereo unspecified): 78.8 µM; `O=C(O)c1ccc(-n2cccc2/C=C2/NC(=O)N(c3ccccc3)C2=O)cc1`: 15.7 µM.
For `O=C(Nc1ccccc1)C1=C(O)CC(c2ccco2)CC1=Nc1ccccc1` (stereo unspecified), the IC50 was 70.3 µM.
In the case of `CN(C)c1ccc(N=C/C=C2/N(C)c3ccccc3C2(C)C)cc1`, the IC50 was 64.4 µM.
Consider `C=C(C)C(=O)Nc1cccc(C2=NOC3(C2)C[C@@H](C(N)=O)N(C(=O)CC(c2ccccc2)c2ccccc2)C3)c1` (stereo partly specified), for which the IC50 was 29.3 µM.
The value for `O=[N+]([O-])c1ccc(-c2ccc(/C=N/c3c(-c4ccco4)nc4ccccn34)o2)cc1` was 1.4 µM; that for `C[n+]1cccc2cccc([O-])c21` was 13.7 µM.
The value for `Nc1ccc(N(CCO)CCO)cc1` was 9.62 µM.
